Source: patent publication US8143447B2, “Treatment of cancer” (BiPar Sciences, Inc., priority 2006, dated 2012)
“Also recorded” adds a separate entry of the source.

How the values were obtained:
[1] = BA metabolite identification by LC/MS/MS from murine plasma; assay type: in vivo, mouse; conditions: murine plasma after BA administration; equivalents measured using BSI-201 in the 1 μg/ml spike sample as reference standard
Method: (§1) Plasma samples were obtained from dog, rat and mouse studies, in which animals were administered 4-iodo-3-nitrobenzamide (BA). Plasma and tumor samples were prepared for HPLC injection by precipitating plasma (50 μl) with 3× volumes (150 μl) of acetonitrile. Tissue samples were prepared for HPLC injection by adding 1 μl of acetonitrile per mg of tissue, then homogenizing with an electric homogenizer. Following centrifugation, 150 μl of each supernatant was evaporated to dryness, reconstituted in 50 μl of 0.2% formic acid in water and analyzed by chromatography and mass spectrometry techniques (LC/MS/MS conditions). LC/MS/MS conditions are: HPLC (Shimadzu VP System); Mobile Phase: 0.2% formic acid in water (A) and 0.18% formic acid in methanol (B); Column: 1×50 mm Thermo BetaBasic C18 column; Injection volume: 25 μL; Gradient: 0-60% B in 30 minutes; Flow Rate: 100 μL/min; Mass Spectrometer: Applied Biosystems/MDS SCIEX Q-STAR; Interface: IonSpray split at 1/10; Parent Ion Scan: TOF Positive from 200-900 amu; Product Ion Scan: TOF Product Ion from 60-900 amu of most intense Ion in Parent Ion Scan; TOF calibration: Externally calibrated using Renin Substrate. Results of metabolite identification from dog and mouse plasma are depicted in Tables 1-3, as follows: […]

HTC116 cells = assay: Cell-cycle analysis (DNA content, flow cytometry); assay type: cell-based; conditions: treated for 19 hours
Method: HCT116 and Hela cells were obtained from ATCC. For DNA content analysis, 2×10^5 cells were washed twice with PBS and fixed in 70% ethanol. Cells were treated with 100 units/mL RNase A for 20 minutes at 37° C., resuspended in cold PBS containing Alexa Fluor® 405 fluorescent stain (Invitrogen) according to the manufacturer's protocol. Cells were analyzed by flow cytometry. FIG. 1 illustrates (FACS dot plots and histograms) cell-cycle analysis in HTC116 cells treated with PARP-1 inhibitor (4-iodo-3-nitrobenzamide or “BA”) for 19 hours.

[2] = BA metabolite identification by LC/MS/MS from canine plasma; assay type: in vivo, dog; conditions: canine plasma after BA administration; equivalents measured using BSI-201 in the 1 μg/ml spike sample as reference standard
Method: as §1

KB 3-1 cells = assay: Colony-forming assay, KB 3-1 cells; assay type: cell-based, human; conditions: KB 3-1 (MDR1 normal) cells, 0-100 μM, 14 days
From the text: (§2) KB-V1 is a vinblastine resistant clone of KB-3-1 human carcinoma cell line (Fojo, A. T., J Whang-Peng, M. M. Gottesman, and I. Pastan. 1985. Amplification of DNA sequences in human multidrugresistant KB carcinoma cells. Proc. Natl. Acad. Sci. USA 82:7661-7665., Shen, D.-W., C. Cardarelli, J lwang, M. Cornwell, N. Richert, S. Ishii, I. Pastan, and M. M. Gottesman. 1986. Multiple drug-resistant human KB carcinoma cells independently selected for high-level resistance to colchicine, Adriamycin, or vinblastine show changes in expression of specific proteins. J. Biol. Chem. 261:7762-7770). Cells were propagated in Eagle minimal essential medium with 10% fetal bovine serum.
(§3) Cells were trypsinized, counted, and diluted to a final concentration of 10^6 cells/ml. Colony-forming assays were performed by plating an appropriate number of cells into culture dishes in triplicates and treated with 0-100 μM of a compound. After 14 days, cells were fixed and stained with 1% crystal violet, and colonies were counted.

[3] = BA metabolite identification by LC/MS/MS from canine plasma and red blood cells; assay type: in vivo, dog; conditions: equivalents by 270 nm UV peak area of BSI-201 in the 5 μg/ml spike sample
Method: as §1

KB V-1 cells = assay: Colony-forming assay, KB V-1 cells (MDR1 overexpressing); assay type: cell-based, human; conditions: KB V-1 (MDR1 overexpressing, vinblastine resistant) cells, 0-100 μM, 14 days
From the text: as §2, §3

[4] = system: established adult tumor lines s.c. implanted in nude mice; conditions: administered p.o.; cited from earlier work
adult tumor cell lines = conditions: a number of adult tumor cell lines; cited from earlier work

NC(=O)c1ccc(I)c([N+](=O)[O-])c1 [BA, 4-iodo-3-nitrobenzamide]
Approximate [1]: ~3.7 ng/mL
S phase cell cycle (HTC116 cells; compared to control): decrease
number of cells in the G1 phase (HTC116 cells; control 18.6%): 48.6%
Approximate [2]: ~1.9 ng/mL
number of cell colonies / cell death (KB 3-1 cells): dose-dependent cell death; also recorded: reduces the number of cell colonies in a dose-dependant manner
Approximate μg/ml Plasma ([3]; canine plasma): ~2.1 µg/mL
Approximate μg/ml RBC ([3]; canine red blood cells): ~1.6 µg/mL
number of cell colonies / cell death (KB V-1 cells): dose-dependent cell death; also recorded: reduces the number of cell colonies in a dose-dependant manner

NC(=O)c1ccc(I)c(O)c1 [M4 (263 m/z)]
Approximate [1]: ~56 ng/mL
Approximate [2]: ~12 ng/mL

Nc1ccccc1NC(=O)c1ccc(CNC(=O)OCc2cccnc2)cc1 [MS-27-275]
growth of established adult tumor lines [4]: inhibited the growth
toxicities [4]: minimal toxicities
IC50 of tumor cell growth inhibition (adult tumor cell lines): submicromolar range
